The source of these data is ChEMBL document CHEMBL5360530, “Structure activity relationship (SAR) and anticancer activity of pyrrolidine derivatives: Recent developments and future prospects (A review)” (Eur J Med Chem, 2023).

Molecules are shown by their SMILES.

Data set [1] concerns PC-3. In words: Anticancer activity against human PC-3 cells assessed as cell death at 50 uM measured after 72 hrs by MTT assay relative to control. Format: functional.
Data set [2] has as its system HT-29. In words: Anticancer activity against human HT-29 cells assessed as cell growth inhibition measured after 24 hrs by MTT assay. Format: functional, cell-based. The note with it: HT-29, 24 h.
Data set [3] has as its system MCF7. In words: Anticancer activity against human MCF7 cells assessed as cell growth inhibition measured after 24 hrs by MTT assay. Format: functional, cell-based. The note with it: MCF7, 24 h.
For data set [4], the system named is MCF7. The data set can be described thus: Anticancer activity against human MCF7 cells assessed as cell growth inhibition measured after 24 hrs by SRB assay. Format: functional, cell-based. The note with it: MCF7, 24 h.
Data set [5] deals with HCT-116. In words: Anticancer activity against human HCT-116 cells assessed as cell growth inhibition measured after 24 hrs by SRB assay. Format: functional, cell-based. The note with it: HCT-116, 24 h.
The subject of another data set is Mahlavu. The data set can be described thus: Anticancer activity against human Mahlavu cells assessed as cell growth inhibition measured after 24 hrs by SRB assay. Format: functional, cell-based.
The subject of a further data set is Huh-7. In words: Anticancer activity against human Huh-7 cells assessed as cell growth inhibition measured after 24 hrs by SRB assay. The class given is functional, cell-based. The conditions noted are these: Huh-7, 24 h.
Data set [6] concerns MCF7. The data set can be described thus: Growth inhibition of human MCF7 cells assessed as cell growth inhibition by SRB assay. The class given is functional.
Data set [7] is described as follows: Cytotoxicity against human Chang liver cells assessed as cell growth inhibition measured after 24 hrs by DAPI and propidium iodide staining based assay. Format: toxicity.
Data set [8] relates to MCF7. In words: Anticancer activity against human MCF7 cells assessed as cell growth inhibition measured after 48 hrs by WST-1 assay. The class given is functional, cell-based. The conditions noted are these: MCF7, 48 h.
Data set [9] concerns K562. In words: Anticancer activity against human K562 cells assessed as cell growth inhibition measured after 48 hrs by WST-1 assay. Format: functional, cell-based. The note with it: K562, 48 h.
The subject of data set [10] is MCF7. The data set can be described thus: Anticancer activity against human MCF7 cells assessed as cell growth inhibition measured after 48 hrs by MTT assay. Format: functional, cell-based. The note with it: MCF7, 48 h.
For data set [11], the system named is HT-29. The data set can be described thus: Anticancer activity against human HT-29 cells assessed as cell growth inhibition measured after 48 hrs by MTT assay. The class given is functional, cell-based. The note with it: HT-29, 48 h.
In data set [12] the test system is K562. The data set can be described thus: Anticancer activity against human K562 cells assessed as cell growth inhibition measured after 48 hrs by MTT assay. Format: functional, cell-based. The note with it: K562, 48 h.
Data set [13] deals with HCT-116. The data set can be described thus: Anticancer activity against human HCT-116 cell assessed as cell growth inhibition. Format: functional, cell-based.
The test system of data set [14] is HepG2. In words: Anticancer activity against human HepG2 cell assessed as cell growth inhibition. The class given is functional, cell-based.
The test system of data set [15] is PC-3. In words: Anticancer activity against human PC-3 cell assessed as cell growth inhibition. Format: functional, cell-based.
Another data set relates to COS-7. The data set can be described thus: Anticancer activity against COS-7 cells assessed as cell growth inhibition at 50 uM measured after 48 hrs by MTT assay relative to control. The note with it: Chlorocebus aethiops. Format: functional.
Data set [16] deals with HCT-116. In words: Anticancer activity against human HCT-116 cells assessed as cell growth inhibition measured after 48 hrs by MTT assay. The class given is functional, cell-based. The note with it: HCT-116, 48 h.
Data set [17] relates to HepG2. In words: Anticancer activity against human HepG2 cells assessed as cell growth inhibition measured after 48 hrs by MTT assay. Format: functional, cell-based. The note with it: HepG2, 48 h.
Data set [18] has as its system PC-3. In words: Anticancer activity against human PC-3 cells assessed as cell growth inhibition measured after 48 hrs by MTT assay. The class given is functional, cell-based. The note with it: PC-3, 48 h.
The subject of data set [19] is HCT-116. In words: Potency index, ratio of cisplatin IC50 to test compound IC50 for anticancer activity against human HCT-116 cells. The class given is functional.
The test system of data set [20] is HepG2. In words: Potency index, ratio of cisplatin IC50 to test compound IC50 for anticancer activity against human HepG2 cells. Format: functional.
In data set [21] the test system is PC-3. In words: Potency index, ratio of cisplatin IC50 to test compound IC50 for anticancer activity against human PC-3 cells. The class given is functional.
Data set [22] relates to MDA-MB-435. The data set can be described thus: Growth inhibition of human MDA-MB-435 cells assessed as cell growth inhibition by SRB assay. Format: functional.
The subject of data set [23] is MDA-MB-435. In words: Anticancer activity against human MDA-MB-435 cells assessed as cell growth inhibition by SRB assay. Format: functional, cell-based.
For data set [24], the system named is MCF7. In words: Anticancer activity against human MCF7 cells assessed as cell growth inhibition by SRB assay. Format: functional, cell-based.

`COC(=O)[C@H]1C[C@@H](C(=O)OC)C(c2ccccc2)(c2ccccc2)N1C(=O)Cn1cc(C2CC2)nn1`: the Activity with PC-3 [1] worked out at 25%.
As to `COc1cc(/C=N/N2C(=O)c3ccccc3C2=O)cc(OC)c1O`, the concentration for half-maximal inhibition (IC50) turned out to be 278 µM with HT-29 [2] and 293 µM in the data set with MCF7 [3].
For the compound `CCNC(=O)[C@H]1[C@H](c2ccc([N+](=O)[O-])cc2)[C@@]2(C(=O)Nc3ccccc32)[C@H](CC(C)C)N1[C@H](c1ccccc1)[C@@H](O)c1ccccc1`, the IC50 in the data set with MCF7 [4] turned out to be 4.8 µM; in the data set with HCT-116 [5], 3.9 µM; in the data set with Mahlavu it was 14.9 µM; in the data set on Huh-7, 8.2 µM.
As for `CC/C(=C(\c1ccccc1)c1ccc(OCCN(C)C)cc1)c1ccccc1` [TAMOXIFEN], the GI50 in the data set with MCF7 [6] was below 10 µg/mL. In the data set on MCF7 [3], the IC50 worked out at 20.2 µM. In [7], the IC50 at 24 h amounted to 46.2 µM.
`O=C1/C(=C/c2cccc(F)c2)CCC[C@]12[C@@H](c1cccc(F)c1)[C@@H]1CSCN1[C@]21C(=O)Nc2ccccc21`: the IC50 with MCF7 [8] is 15.3 µM; with K562 [9], 15.7 µM.
In the case of `COC(=O)[C@H]1C[C@@H](C(=O)OC)C(c2ccccc2)(c2ccccc2)N1C(=O)Cn1cc(-c2ccccc2)nn1`, the Activity in the data set with PC-3 [1] is recorded as 30%.
In the case of `CC(=O)O[C@H]1C(=O)[C@@]2(C)[C@H]([C@H](OC(=O)c3ccccc3)[C@]3(O)C[C@H](OC(=O)[C@H](O)[C@@H](NC(=O)c4ccccc4)c4ccccc4)C(C)=C1C3(C)C)[C@]1(OC(C)=O)CO[C@@H]1C[C@@H]2O` [PACLITAXEL], the values for the IC50 in the data set on MCF7 [10], in the data set on HT-29 [11] and in the data set with K562 [12] were 47.2 µM, 19.9 µM and 0.35 µM, respectively.
Regarding `Cc1ccc([C@@H]2[C@@H](C(=O)c3c[nH]c4ccccc34)[C@]3(C(=O)Nc4ccccc43)N3CSC[C@@H]23)cc1`, the IC50 in the data set on HCT-116 [13] stood at 9 µM; in the data set on HepG2 [14], 5.5 µM; in the data set with PC-3 [15] it was 6 µM.
For `COc1ccc(C2NCCC23C(=O)Nc2ccccc23)cc1OC` (configuration not stated), the inhibition at 50 µM in the data set on COS-7 was 0.51%.
As for `O=C1CCC(=O)N1CC(=O)N1N=C(c2ccccc2)CC1c1ccccc1` (configuration not stated), the IC50 in the data set on MCF7 [10], in the data set with HT-29 [11] and in the data set on K562 [12] was 0.39 µM throughout.
`O=C(/C=C/c1ccc(Cl)cc1Cl)[C@H]1[C@H](c2ccc(Cl)cc2Cl)[C@H]2CSCN2[C@]12C(=O)Nc1ccccc12`: the IC50 with HCT-116 [16] is 2 µM; in the data set with HepG2 [17] it was 1 µM; in the data set with PC-3 [18] it was at least 2.7 µM. The “Ratio IC50” value with HCT-116 [19] was determined as 4; with HepG2 [20] it was 2; in the data set on PC-3 [21] it was 1.8.
With `O=C(c1c[nH]c2ccccc12)[C@@H]1[C@@H](c2ccc(Br)cc2)[C@@H]2CSCN2[C@@]12C(=O)Nc1ccccc12`, the “Ratio IC50” value in the data set with PC-3 [21] is above 3. Besides, the half-maximal inhibitory concentration (IC50) in the data set with HepG2 [14] stood at 5.5 µM; in the data set with PC-3 [15], 7 µM.
`O=C(/C=C/c1ccc(Cl)cc1)[C@H]1[C@H](c2ccc(Cl)cc2)[C@H]2CSCN2[C@]12C(=O)Nc1ccccc12`: the values for the concentration for half-maximal inhibition (IC50) in the data set with HCT-116 [16], in the data set on HepG2 [17] and with PC-3 [18] were 2.5 µM, 1 µM and at least 2.7 µM, respectively. For the same compound, the “Ratio IC50” value is on record as 4 with HCT-116 [19], 2 with HepG2 [20] and 1.8 in the data set with PC-3 [21].
As for `COC(=O)[C@H]1C[C@@H](C(=O)OC)C(c2ccccc2)(c2ccccc2)N1C(=O)Cn1cc(C2CCCC2)nn1`, the Activity in the data set with PC-3 [1] was 30%.
Regarding `N#CC1=C(N)OC2=C(C(=O)CO2)C12C(=O)Nc1ccc(Br)cc12` (configuration not stated), the 50% growth inhibitory concentration (GI50) in the data set on MDA-MB-435 [22] was determined as 1.8 µM. Besides, the figures for the concentration for half-maximal inhibition (IC50) in the data set with MDA-MB-435 [23] and in the data set on MCF7 [24] were at least 3.6 µM and at least 53 µM, respectively.
As for `O=C(c1c[nH]c2ccccc12)[C@@H]1[C@@H](c2cccc(C(F)(F)F)c2)[C@@H]2CSCN2[C@@]12C(=O)Nc1ccccc12`, the values for the IC50 with HCT-116 [13] and with HepG2 [14] were 7 µM and 5.5 µM, respectively.
Regarding `O=C1c2ccccc2C(=O)N1/N=C/c1ccccc1`, the half-inhibitory concentration (IC50) in the data set on HT-29 [2] is 644 µM; in the data set on MCF7 [3], 293 µM.
Regarding `O=C1Nc2ccccc2C12CCNC2c1cc(C(F)(F)F)ccc1C(F)(F)F` (configuration not stated), the inhibition at 50 µM in the data set with COS-7 was 0.51%.
Regarding `COC(=O)[C@H]1C[C@@H](C(=O)OC)C(c2ccccc2)(c2ccccc2)N1C(=O)Cn1cc(CC2CCCCC2)nn1`, in the data set with PC-3 [1], the Activity was determined as 64%.
As to `CC(C)C[C@@H]1N2[C@H](c3ccccc3)[C@H](c3ccccc3)OC(=O)[C@H]2[C@H](c2ccc([N+](=O)[O-])cc2)[C@@]12C(=O)Nc1ccccc12`, the concentration for half-maximal inhibition (IC50) came to 4.8 µM with MCF7 [4], 3.9 µM with HCT-116 [5], 14.9 µM in the data set with Mahlavu and 77.8 µM in the data set on Huh-7.
